Laboratory results taken from the NIST ThermoML archive (doi:10.1021/je060353z).

Assay: xn = mol fraction of the nth substance listed
Conditions: 101 kPa, Liquid

Clc1ccccc1 [chlorobenzene] + CCCCCCCCCCO
Conditions | mass density [kg/m3] | speed of sound [m/s] | viscosity [mPa·s]
298.15 K, x1 = 0.1664 | 852.913 | 1362.6 | 7.762
298.15 K, x1 = 0.322 | 881.587 | 1344.4 | 5.123
298.15 K, x1 = 0.4609 | 911.692 | 1327 | 3.484
298.15 K, x1 = 0.5731 | 939.879 | 1311.7 | 2.539
298.15 K, x1 = 0.6619 | 965.236 | 1299.5 | 1.967
298.15 K, x1 = 0.7456 | 992.108 | 1288.5 | 1.517
298.15 K, x1 = 0.8174 | 1017.95 | 1280.1 | 1.243
298.15 K, x1 = 0.8857 | 1045.67 | 1273.3 | 1.017
298.15 K, x1 = 0.9426 | 1071.48 | 1269.5 | 0.865
298.15 K, x1 = 1 | 1100.67 | 1268 | 0.757
303.15 K, x1 = 0.1664 | 848.821 | 1343.9 | 6.542
303.15 K, x1 = 0.322 | 877.329 | 1325 | 4.407
303.15 K, x1 = 0.4609 | 907.247 | 1307.2 | 3.058
303.15 K, x1 = 0.5731 | 935.236 | 1292.4 | 2.262
303.15 K, x1 = 0.6619 | 960.447 | 1280.9 | 1.771
303.15 K, x1 = 0.7456 | 987.138 | 1270.5 | 1.388
303.15 K, x1 = 0.8174 | 1012.83 | 1262.6 | 1.147
303.15 K, x1 = 0.8857 | 1040.32 | 1256.1 | 0.949
303.15 K, x1 = 0.9426 | 1065.89 | 1252.2 | 0.808
303.15 K, x1 = 1 | 1095.1 | 1249.4 | 0.714
308.15 K, x1 = 0.1664 | 845.166 | 1326 | 5.554
308.15 K, x1 = 0.322 | 873.388 | 1306.4 | 3.814
308.15 K, x1 = 0.4609 | 903.044 | 1288.1 | 2.695
308.15 K, x1 = 0.5731 | 930.8 | 1272.9 | 2.021
308.15 K, x1 = 0.6619 | 955.749 | 1260.8 | 1.597
308.15 K, x1 = 0.7456 | 982.146 | 1249.5 | 1.273
308.15 K, x1 = 0.8174 | 1007.56 | 1240.8 | 1.045
308.15 K, x1 = 0.8857 | 1034.75 | 1234.6 | 0.868
308.15 K, x1 = 0.9426 | 1060.08 | 1231 | 0.756
308.15 K, x1 = 1 | 1089.08 | 1230.9 | 0.677
313.15 K, x1 = 0.1664 | 841.509 | 1308.6 | 4.751
313.15 K, x1 = 0.322 | 869.536 | 1288.1 | 3.323
313.15 K, x1 = 0.4609 | 898.972 | 1269.1 | 2.388
313.15 K, x1 = 0.5731 | 926.509 | 1253.3 | 1.816
313.15 K, x1 = 0.6619 | 951.271 | 1241.1 | 1.454
313.15 K, x1 = 0.7456 | 977.488 | 1230.1 | 1.156
313.15 K, x1 = 0.8174 | 1002.68 | 1222.1 | 0.968
313.15 K, x1 = 0.8857 | 1029.64 | 1216.5 | 0.809
313.15 K, x1 = 0.9426 | 1054.84 | 1213.4 | 0.702
313.15 K, x1 = 1 | 1083.66 | 1212.6 | 0.617

Clc1ccccc1 [chlorobenzene] + CCCCCCCCCO
x1 = 1
Conditions | mass density [kg/m3] | speed of sound [m/s] | viscosity [mPa·s]
298.15 K | 1100.67 | 1268 | 0.757
303.15 K | 1095.1 | 1249.4 | 0.714
308.15 K | 1089.08 | 1230.9 | 0.677
313.15 K | 1083.66 | 1212.6 | 0.617

Clc1ccccc1 [chlorobenzene] + CCCCCCCCO
Conditions | mass density [kg/m3] | speed of sound [m/s] | viscosity [mPa·s]
298.15 K, x1 = 0.1423 | 848.715 | 1334.1 | 5.448
298.15 K, x1 = 0.2807 | 877.644 | 1319.1 | 3.87
298.15 K, x1 = 0.4121 | 908.104 | 1303.7 | 2.788
298.15 K, x1 = 0.5237 | 936.698 | 1291.1 | 2.116
298.15 K, x1 = 0.6158 | 962.489 | 1281.2 | 1.692
298.15 K, x1 = 0.7073 | 990.466 | 1272.7 | 1.363
298.15 K, x1 = 0.7885 | 1017.46 | 1267 | 1.132
298.15 K, x1 = 0.8662 | 1045.68 | 1264 | 0.956
298.15 K, x1 = 0.9331 | 1072.02 | 1264 | 0.841
298.15 K, x1 = 1 | 1100.97 | 1268 | 0.757
303.15 K, x1 = 0.1423 | 844.912 | 1317.5 | 4.64
303.15 K, x1 = 0.2807 | 873.625 | 1303.4 | 3.352
303.15 K, x1 = 0.4121 | 903.886 | 1289.6 | 2.455
303.15 K, x1 = 0.5237 | 932.283 | 1277.8 | 1.89
303.15 K, x1 = 0.6158 | 957.91 | 1268.6 | 1.528
303.15 K, x1 = 0.7073 | 985.68 | 1260 | 1.243
303.15 K, x1 = 0.7885 | 1012.47 | 1253.4 | 1.04
303.15 K, x1 = 0.8662 | 1040.47 | 1248.7 | 0.885
303.15 K, x1 = 0.9331 | 1066.6 | 1247.5 | 0.782
303.15 K, x1 = 1 | 1095.1 | 1249.4 | 0.714
308.15 K, x1 = 0.1423 | 841.161 | 1302.6 | 3.981
308.15 K, x1 = 0.2807 | 869.616 | 1289.5 | 2.919
308.15 K, x1 = 0.4121 | 899.625 | 1276 | 2.174
308.15 K, x1 = 0.5237 | 927.793 | 1263.8 | 1.678
308.15 K, x1 = 0.6158 | 953.186 | 1254.6 | 1.366
308.15 K, x1 = 0.7073 | 980.694 | 1245.7 | 1.119
308.15 K, x1 = 0.7885 | 1007.21 | 1238.7 | 0.956
308.15 K, x1 = 0.8662 | 1034.92 | 1233.4 | 0.833
308.15 K, x1 = 0.9331 | 1060.82 | 1230.9 | 0.752
308.15 K, x1 = 1 | 1089.08 | 1230.9 | 0.677
313.15 K, x1 = 0.1423 | 836.375 | 1285.8 | 3.436
313.15 K, x1 = 0.2807 | 864.727 | 1273.2 | 2.562
313.15 K, x1 = 0.4121 | 894.659 | 1260.3 | 1.934
313.15 K, x1 = 0.5237 | 922.757 | 1248.9 | 1.528
313.15 K, x1 = 0.6158 | 948.078 | 1239.6 | 1.267
313.15 K, x1 = 0.7073 | 975.5 | 1230.7 | 1.037
313.15 K, x1 = 0.7885 | 1001.95 | 1223.5 | 0.891
313.15 K, x1 = 0.8662 | 1029.57 | 1217.8 | 0.76
313.15 K, x1 = 0.9331 | 1055.42 | 1214.3 | 0.681
313.15 K, x1 = 1 | 1083.66 | 1212.6 | 0.617

Clc1ccccc1 [chlorobenzene] + CCCCCCCO
Conditions | mass density [kg/m3] | speed of sound [m/s] | viscosity [mPa·s]
298.15 K, x1 = 0.1306 | 846.348 | 1316.7 | 4.469
298.15 K, x1 = 0.2566 | 874.819 | 1305.5 | 3.335
298.15 K, x1 = 0.3866 | 906.448 | 1293.8 | 2.453
298.15 K, x1 = 0.4947 | 934.739 | 1284 | 1.911
298.15 K, x1 = 0.5878 | 960.727 | 1276 | 1.557
298.15 K, x1 = 0.6827 | 988.992 | 1269.1 | 1.273
298.15 K, x1 = 0.7682 | 1016.23 | 1264.6 | 1.073
298.15 K, x1 = 0.8521 | 1044.88 | 1262.7 | 0.918
298.15 K, x1 = 0.9255 | 1071.67 | 1263.8 | 0.817
298.15 K, x1 = 1 | 1100.97 | 1268 | 0.757
303.15 K, x1 = 0.1306 | 842.689 | 1300 | 3.832
303.15 K, x1 = 0.2566 | 870.964 | 1289 | 2.896
303.15 K, x1 = 0.3866 | 902.362 | 1277.6 | 2.164
303.15 K, x1 = 0.4947 | 930.425 | 1268.2 | 1.709
303.15 K, x1 = 0.5878 | 956.224 | 1260.7 | 1.406
303.15 K, x1 = 0.6827 | 984.268 | 1253.8 | 1.16
303.15 K, x1 = 0.7682 | 1011.3 | 1248.7 | 0.984
303.15 K, x1 = 0.8521 | 1039.69 | 1245.4 | 0.85
303.15 K, x1 = 0.9255 | 1066.23 | 1245.5 | 0.764
303.15 K, x1 = 1 | 1095.1 | 1249.4 | 0.714
308.15 K, x1 = 0.1306 | 838.9 | 1283.3 | 3.311
308.15 K, x1 = 0.2566 | 866.926 | 1272.1 | 2.532
308.15 K, x1 = 0.3866 | 898.052 | 1260.4 | 1.922
308.15 K, x1 = 0.4947 | 925.892 | 1250.2 | 1.543
308.15 K, x1 = 0.5878 | 951.47 | 1242 | 1.283
308.15 K, x1 = 0.6827 | 979.252 | 1235 | 1.059
308.15 K, x1 = 0.7682 | 1006.02 | 1230.1 | 0.915
308.15 K, x1 = 0.8521 | 1034.12 | 1227.6 | 0.816
308.15 K, x1 = 0.9255 | 1060.42 | 1228 | 0.733
308.15 K, x1 = 1 | 1089.08 | 1230.9 | 0.677
313.15 K, x1 = 0.1306 | 835.146 | 1266.5 | 2.872
313.15 K, x1 = 0.2566 | 862.967 | 1255.6 | 2.219
313.15 K, x1 = 0.3866 | 893.905 | 1243.8 | 1.705
313.15 K, x1 = 0.4947 | 921.55 | 1233.6 | 1.378
313.15 K, x1 = 0.5878 | 946.95 | 1225.3 | 1.135
313.15 K, x1 = 0.6827 | 974.575 | 1217.9 | 0.953
313.15 K, x1 = 0.7682 | 1001.13 | 1212.9 | 0.822
313.15 K, x1 = 0.8521 | 1029.02 | 1209.9 | 0.723
313.15 K, x1 = 0.9255 | 1055.08 | 1209.7 | 0.662
313.15 K, x1 = 1 | 1083.66 | 1212.6 | 0.617
